Assay results as given in patent US6914045B2, “Glycopeptide antibiotics” (Wyeth Holdings Corporation, priority 2001, dated 2005).
In brackets after ≈: the same amount, converted by molar mass.

How the values were obtained:
Assay in all cases: in vitro antibacterial evaluation, MIC by broth dilution
Assay type in all cases: cell-based
[1] = system: Enterococcus sp.; settings: broth dilution, 18 hours at 35° C.
Outline: (§1)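 Read-out: the lowest concentration at which the test strain fails to grow. Serial dilutions (64-0.06 μg/mL) in Muller-Hinton II […], 5×10^5 CFU/mL inoculum, NCCLS M7-A2 procedure.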

[2] = system: Escherichia coli; settings: 18 hours at 35° C.
Outline: as §1

[3] = system: Staphylococcus sp.
Outline: as §1

[4] = system: Streptococcus sp.; settings: broth dilution, 18 hours at 35° C.
Outline: as §1

[5] = system: Escherichia coli; settings: 18 hours at 35° C.; remark: listed apart in the source
[6] = broth dilution, 18 hours at 35° C.
[7] = strain ATCC 29213; broth dilution, 18 hours at 35° C.
[8] = strain GC 1131; broth dilution, 18 hours at 35° C.

CC(c1ccccc1)C1NC(=O)CNC(=O)C(CO)NC(=O)C(C(O)C2CNC(=N)N2C2OC(CO)C(O)C(O)C2O)NC(=O)C(C(O)C2CNC(=N)N2)NC(=O)C(Cc2ccc(OC3OC(COC(=O)CCC4CCCC4)C(OC4OC(CO)C(O)C(O)C4O)C(O)C3O)cc2)NC1=O (centres unmarked) [Example 100b]
MIC Enterococcus faecalis (ATCC 29212) ([1]; Enterococcus faecalis (ATCC 29212)): 8 µg/mL (≈ 5.64 µM)
MIC Enterococcus faecalis (GC 2242) ([1]; Enterococcus faecalis (GC 2242)): 8 µg/mL (≈ 5.64 µM)
MIC Enterococcus faecalis (GC 4552) ([1]; Enterococcus faecalis (GC 4552)): 8 µg/mL (≈ 5.64 µM)
MIC Enterococcus faecalis (ATCC 29212) ([1]; strain ATCC 29212): 8 µg/mL (≈ 5.64 µM)
MIC Enterococcus faecalis (GC 2242) ([1]; strain GC 2242): 8 µg/mL (≈ 5.64 µM)
MIC Enterococcus faecalis (GC 4552) ([1]; strain GC 4552): 8 µg/mL (≈ 5.64 µM)
MIC Escherichia coli (GC 4559) ([2]; strain GC 4559): >128 µg/mL
MIC Escherichia coli (GC 4560) ([2]; strain GC 4560): 0.5 µg/mL (≈ 0.352 µM)
MIC Coagulase Negative Staphylococcus (GC 4537) [3, 6]: 2 µg/mL (≈ 1.41 µM)
MIC Coagulase Negative Staphylococcus (GC 4538) [3, 6]: 1 µg/mL (≈ 0.704 µM)
MIC Coagulase Negative Staphylococcus (GC 4547) [3, 6]: 1 µg/mL (≈ 0.704 µM)
MIC Staphylococcus aureus (ATCC 29213) [3, 6]: 2 µg/mL (≈ 1.41 µM)
MIC Staphylococcus aureus (GC 1131) [3, 6]: 2 µg/mL (≈ 1.41 µM)
MIC Staphylococcus aureus (GC 4535) [3, 6]: 2 µg/mL (≈ 1.41 µM)
MIC Staphylococcus aureus-SMITH (GC 4536) [3, 6]: 2 µg/mL (≈ 1.41 µM)
MIC Coagulase Negative Staphylococcus (GC 4537) ([3]; broth dilution, 18 hours at 35° C.; strain GC 4537): 2 µg/mL (≈ 1.41 µM)
MIC Coagulase Negative Staphylococcus (GC 4538) ([3]; broth dilution, 18 hours at 35° C.; strain GC 4538): 1 µg/mL (≈ 0.704 µM)
MIC Coagulase Negative Staphylococcus (GC 4547) ([3]; broth dilution, 18 hours at 35° C.; strain GC 4547): 1 µg/mL (≈ 0.704 µM)
MIC Staphylococcus aureus (ATCC 29213) [3, 7]: 2 µg/mL (≈ 1.41 µM)
MIC Staphylococcus aureus (GC 1131) [3, 8]: 2 µg/mL (≈ 1.41 µM)
MIC Staphylococcus aureus (GC 4535) ([3]; strain GC 4535; broth dilution, 18 hours at 35° C.): 2 µg/mL (≈ 1.41 µM)
MIC Staphylococcus aureus-SMITH (GC 4536) ([3]; strain GC 4536; broth dilution, 18 hours at 35° C.): 2 µg/mL (≈ 1.41 µM)

CC(c1ccccc1)C1NC(=O)CNC(=O)C(CO)NC(=O)C(C(O)C2CNC(=N)N2C2OC(CO)C(O)C(O)C2O)NC(=O)C(C(O)C2CNC(=N)N2)NC(=O)C(Cc2ccc(OC3OC(CO)C(OC4OC(CO)C(O)C5OC6(CCCCCCCCCCCC6)OC45)C(O)C3O)cc2)NC1=O (centres unmarked) [Example 210a]
MIC Streptococcus agalactiae (GC 4564) [4]: 2 µg/mL (≈ 1.36 µM)
MIC Streptococcus pneumoniae (ATCC 6301) [4]: 0.5 µg/mL (≈ 0.339 µM)
MIC Streptococcus pneumoniae (GC 1894) [4]: <0.06 µg/mL
MIC Streptococcus pneumoniae (GC 4565) [4]: 0.25 µg/mL (≈ 0.17 µM)
MIC Streptococcus pyogenes (GC 4563) [4]: 1 µg/mL (≈ 0.679 µM)
MIC Streptococcus pneumoniae (ATCC 6301) ([4]; inoculum 5×10^5 CFU/mL, strain ATCC 6301): 0.5 µg/mL (≈ 0.339 µM)
MIC Streptococcus pneumoniae (GC 1894) ([4]; inoculum 5×10^5 CFU/mL, strain GC 1894): <0.06 µg/mL
MIC Streptococcus pyogenes (GC 4563) ([4]; inoculum 5×10^5 CFU/mL, strain GC 4563): 1 µg/mL (≈ 0.679 µM)
MIC Streptococcus agalactiae (GC 4564) ([4]; inoculum 5×10^5 CFU/mL, strain GC 4564): 2 µg/mL (≈ 1.36 µM)
MIC Streptococcus pneumoniae (GC 4565) ([4]; inoculum 5×10^5 CFU/mL, strain GC 4565): 0.25 µg/mL (≈ 0.17 µM)
MIC Enterococcus avium (GC 4558) [1]: 4 µg/mL (≈ 2.71 µM)
MIC Enterococcus faecalis (ATCC 29212) [1]: 8 µg/mL (≈ 5.43 µM)
MIC Enterococcus faecalis (GC 2242) [1]: 8 µg/mL (≈ 5.43 µM)
MIC Enterococcus faecalis (GC 2691) [1]: 8 µg/mL (≈ 5.43 µM)
MIC Enterococcus faecalis (GC 3059) [1]: 8 µg/mL (≈ 5.43 µM)
MIC Enterococcus faecalis (GC 4552) [1]: 8 µg/mL (≈ 5.43 µM)
MIC Enterococcus faecalis (GC 4553) [1]: 8 µg/mL (≈ 5.43 µM)
MIC Enterococcus faecalis (GC 4554) [1]: 8 µg/mL (≈ 5.43 µM)
MIC Enterococcus faecalis (GC 6189) [1]: 8 µg/mL (≈ 5.43 µM)
MIC Enterococcus faecium (GC 2243) [1]: 4 µg/mL (≈ 2.71 µM)
MIC Enterococcus faecium (GC 4556) [1]: 8 µg/mL (≈ 5.43 µM)
MIC Enterococcus faecium (GC 4557) [1]: 4 µg/mL (≈ 2.71 µM)
MIC Enterococcus faecalis (ATCC 29212) ([1]; inoculum 5×10^5 CFU/mL, strain ATCC 29212): 8 µg/mL (≈ 5.43 µM)
MIC Enterococcus faecalis (GC 2242) ([1]; inoculum 5×10^5 CFU/mL, strain GC 2242): 8 µg/mL (≈ 5.43 µM)
MIC Enterococcus faecium (GC 2243) ([1]; inoculum 5×10^5 CFU/mL, strain GC 2243): 4 µg/mL (≈ 2.71 µM)
MIC Enterococcus faecalis (GC 2691) ([1]; inoculum 5×10^5 CFU/mL, strain GC 2691): 8 µg/mL (≈ 5.43 µM)
MIC Enterococcus faecalis (GC 3059) ([1]; inoculum 5×10^5 CFU/mL, strain GC 3059): 8 µg/mL (≈ 5.43 µM)
MIC Enterococcus faecalis (GC 4552) ([1]; inoculum 5×10^5 CFU/mL, strain GC 4552): 8 µg/mL (≈ 5.43 µM)
MIC Enterococcus faecalis (GC 4553) ([1]; inoculum 5×10^5 CFU/mL, strain GC 4553): 8 µg/mL (≈ 5.43 µM)
MIC Enterococcus faecalis (GC 4554) ([1]; inoculum 5×10^5 CFU/mL, strain GC 4554): 8 µg/mL (≈ 5.43 µM)
MIC Enterococcus faecium (GC 4556) ([1]; inoculum 5×10^5 CFU/mL, strain GC 4556): 8 µg/mL (≈ 5.43 µM)
MIC Enterococcus faecium (GC 4557) ([1]; inoculum 5×10^5 CFU/mL, strain GC 4557): 4 µg/mL (≈ 2.71 µM)
MIC Enterococcus avium (GC 4558) ([1]; inoculum 5×10^5 CFU/mL, strain GC 4558): 4 µg/mL (≈ 2.71 µM)
MIC Enterococcus faecalis (GC 6189) ([1]; inoculum 5×10^5 CFU/mL, strain GC 6189): 8 µg/mL (≈ 5.43 µM)
MIC Staphylococcus aureus (ATCC 29213) [3, 7]: 4 µg/mL (≈ 2.71 µM)
MIC Staphylococcus aureus (GC 1131) [3, 8]: 4 µg/mL (≈ 2.71 µM)
MIC Staphylococcus aureus (GC 3051) ([3]; strain GC 3051; broth dilution, 18 hours at 35° C.): 8 µg/mL (≈ 5.43 µM)
MIC Staphylococcus aureus (GC 3053) ([3]; strain GC 3053; broth dilution, 18 hours at 35° C.): 4 µg/mL (≈ 2.71 µM)
MIC Staphylococcus aureus (GC 4541) ([3]; strain GC 4541; broth dilution, 18 hours at 35° C.): 4 µg/mL (≈ 2.71 µM)
MIC Staphylococcus aureus (GC 4542) ([3]; strain GC 4542; broth dilution, 18 hours at 35° C.): 8 µg/mL (≈ 5.43 µM)
MIC Staphylococcus aureus-SMITH (GC 4543) ([3]; strain GC 4543; broth dilution, 18 hours at 35° C.): 4 µg/mL (≈ 2.71 µM)
MIC Staphylococcus aureus (GC 4544) ([3]; strain GC 4544; broth dilution, 18 hours at 35° C.): 8 µg/mL (≈ 5.43 µM)
MIC Staphylococcus aureus (GC 4545) ([3]; strain GC 4545; broth dilution, 18 hours at 35° C.): 4 µg/mL (≈ 2.71 µM)
MIC Staphylococcus haemolyticus (GC 4546) ([3]; strain GC 4546; broth dilution, 18 hours at 35° C.): 8 µg/mL (≈ 5.43 µM)
MIC Coagulase Negative Staphylococcus (GC 4547) ([3]; strain GC 4547; broth dilution, 18 hours at 35° C.): 4 µg/mL (≈ 2.71 µM)
MIC Coagulase Negative Staphylococcus (GC 4548) ([3]; strain GC 4548; broth dilution, 18 hours at 35° C.): 4 µg/mL (≈ 2.71 µM)
MIC Coagulase Negative Staphylococcus (GC 4549) ([3]; strain GC 4549; broth dilution, 18 hours at 35° C.): 2 µg/mL (≈ 1.36 µM)
MIC Coagulase Negative Staphylococcus (GC 4551) ([3]; strain GC 4551; broth dilution, 18 hours at 35° C.): 4 µg/mL (≈ 2.71 µM)
MIC Coagulase Negative Staphylococcus (GC 6257) ([3]; strain GC 6257; broth dilution, 18 hours at 35° C.): 4 µg/mL (≈ 2.71 µM)
MIC Escherichia coli (ATCC 25922) [5]: >64 µg/mL
MIC Escherichia coli (GC 4559) [5]: >64 µg/mL
MIC Escherichia coli (GC 4560) [5]: 16 µg/mL (≈ 10.9 µM)
